As usually defined, the IC50 is the concentration that inhibits the measured activity by half. A higher IC50 goes with lower potency.

The structures appear in SMILES notation.

The values that follow come from patent publication US10336761B2, “TGFβ receptor antagonist” (BRISTOL-MYERS SQUIBB COMPANY, priority 2015, dated 2019).

Sequence of HIS-TGFβR1 T204D (P36897 34-503 T204D): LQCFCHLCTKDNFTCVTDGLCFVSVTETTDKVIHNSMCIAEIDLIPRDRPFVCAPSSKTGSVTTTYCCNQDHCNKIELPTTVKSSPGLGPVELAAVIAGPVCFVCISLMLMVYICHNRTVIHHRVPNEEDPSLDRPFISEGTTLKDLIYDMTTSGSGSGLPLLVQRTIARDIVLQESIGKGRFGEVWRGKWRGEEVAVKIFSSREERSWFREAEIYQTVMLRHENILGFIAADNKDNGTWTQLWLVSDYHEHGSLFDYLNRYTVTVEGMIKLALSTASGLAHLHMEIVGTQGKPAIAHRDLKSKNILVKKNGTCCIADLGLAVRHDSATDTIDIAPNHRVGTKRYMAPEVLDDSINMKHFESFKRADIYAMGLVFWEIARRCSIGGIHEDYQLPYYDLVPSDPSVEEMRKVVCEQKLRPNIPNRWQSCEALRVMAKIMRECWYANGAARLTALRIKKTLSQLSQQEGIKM

This assay concerns the target HIS-TGFβR1 T204D (Homo sapiens (Human), UniProt P36897, T204D). In words: HTRF probe-displacement assay, HIS-TGFβR1 T204D. In kind it is binding. The settings on record: 1 hour at room temperature. (In general: TR-FRET usually uses a lanthanide donor and a delayed reading to cut background.)
The molecule `C=Cc1cc2c(Nc3ccncc3F)nc(-c3cccc(OC)n3)nn2c1` [Example 210, N-[6-ethenyl-2-(6-methoxypyridin-2-yl)pyrrolo[2,1-f][1,2,4]triazin-4-yl]-3-fluoropyridin-4-amine] registered an IC50 of 30 nM. Turning to `COc1cccc(-c2nc(Nc3ccncc3F)c3cc(NS(C)(=O)=O)cn3n2)n1` [Example 22, N-{4-[(3-fluoropyridin-4-yl)amino]-2-(6-methoxypyridin-2-yl)pyrrolo[2,1-f][1,2,4]triazin-6-yl}methanesulfonamide], the IC50 was 56 nM. For `COc1cccc(-c2nc(Nc3ccncc3F)c3cc(N)cn3n2)n1` [Example 103, 4-N-(3-fluoropyridin-4-yl)-2-(6-methoxypyridin-2-yl)pyrrolo[2,1-f][1,2,4]triazine-4,6-diamine] the value was 140 nM; for `CS(=O)(=O)Nc1cccc(-c2nc(Nc3ccncc3)c3cccn3n2)n1` [Example 8, N-(6-{4-[(pyridin-4-yl)amino]pyrrolo[2,1-f][1,2,4]triazin-2-yl}pyridin-2-yl)methanesulfonamide], 12 nM. In turn, `COc1cccc(-c2nc(Nc3ccncc3F)c3cc(NS(=O)(=O)C4CC4)cn3n2)n1` [Example 107, N-{4-[(3-fluoropyridin-4-yl)amino]-2-(6-methoxypyridin-2-yl)pyrrolo[2,1-f][1,2,4]triazin-6-yl}cyclopropanesulfonamide] registered an IC50 of 81 nM. As for `Fc1cnccc1Nc1nc(-c2ccccn2)nn2ccc(CNCC3CNC3)c12` [Example 266, N-(5-{[(azetidin-3-ylmethyl)amino]methyl}-2-(pyridin-2-yl)pyrrolo[2,1-f][1,2,4]triazin-4-yl)-3-fluoropyridin-4-amine], the IC50 was determined as 10 nM. As to `Oc1cccc(N2CCN(Cc3ccn4nc(-c5ccccn5)nc(Nc5ccncc5F)c34)CC2)c1` [Example 275, 3-[4-({4-[(3-fluoropyridin-4-yl)amino]-2-(pyridin-2-yl)pyrrolo[2,1-f][1,2,4]triazin-5-yl}methyl)piperazin-1-yl]phenol], the IC50 was 0.47 nM. The molecule `Fc1cnccc1Nc1nc(-c2ccccn2)nn2ccc(CN3CCOCC3)c12` [Example 290, 3-fluoro-N-[5-(morpholin-4-ylmethyl)-2-(pyridin-2-yl)pyrrolo[2,1-f][1,2,4]triazin-4-yl]pyridin-4-amine] registered an IC50 of 1.2 nM. In turn, `Cc1nc(-c2nc(Nc3ccncc3)c3cccn3n2)ccc1F` [Example 69, N-[2-(5-fluoro-6-methylpyridin-2-yl)pyrrolo[2,1-f][1,2,4]triazin-4-yl]pyridin-4-amine] came in with an IC50 of 1.9 nM. The molecule `Fc1cnccc1Nc1nc(-c2ccc(F)c(C(F)F)n2)nn2cccc12` [Example 66, N-{2-[6-(difluoromethyl)-5-fluoropyridin-2-yl]pyrrolo[2,1-f][1,2,4]triazin-4-yl}-3-fluoropyridin-4-amine] returned an IC50 of 0.46 nM.

The molecule `O=C(c1cnccc1Nc1nc(-c2cccc(C(F)F)n2)nn2cccc12)N1CCC(F)(F)CC1` [Example 203, N-{2-[6-(difluoromethyl)pyridin-2-yl]pyrrolo[2,1-f][1,2,4]triazin-4-yl}-3-(4,4-difluoropiperidine-1-carbonyl)pyridin-4-amine] registered an IC50 of 750 nM. For `COc1cccc(-c2nc(Nc3ccnc(NCCCN(C)C)c3)c3cccn3n2)n1` [Example 135, 2-N-[3-(dimethylamino)propyl]-4-N-[2-(6-methoxypyridin-2-yl)pyrrolo[2,1-f][1,2,4]triazin-4-yl]pyridine-2,4-diamine] the value was 88 nM. Take `C=CCOc1cnccc1Nc1nc(-c2ccccn2)nn2cccc12` [Example 79, 3-(prop-2-en-1-yloxy)-N-[2-(pyridin-2-yl)pyrrolo[2,1-f][1,2,4]triazin-4-yl]pyridin-4-amine]: the half-inhibitory concentration (IC50) is 13 nM. With `COc1cccc(-c2nc(Nc3ccnc(F)c3)c3c(C)ccn3n2)n1` [Example 96, 2-fluoro-N-[2-(6-methoxypyridin-2-yl)-5-methylpyrrolo[2,1-f][1,2,4]triazin-4-yl]pyridin-4-amine] the figure was 650 nM; with `Cc1ccc(F)c(-c2nc(Nc3ccncc3F)c3cccn3n2)n1` [Example 261, 3-fluoro-N-[2-(3-fluoro-6-methylpyridin-2-yl)pyrrolo[2,1-f][1,2,4]triazin-4-yl]pyridin-4-amine], less than 0.76 nM. The molecule `OCCN1CCN(Cc2ccn3nc(-c4ccccn4)nc(Nc4ccncc4F)c23)CC1` [Example 231, 2-[4-({4-[(3-fluoropyridin-4-yl)amino]-2-(pyridin-2-yl)pyrrolo[2,1-f][1,2,4]triazin-5-yl}methyl)piperazin-1-yl]ethan-1-ol] yielded a half-maximal inhibitory concentration (IC50) of 2.3 nM. With `CC(=O)Nc1cc(Nc2nc(-c3ccccn3)nn3ccc(CN4CCC(F)(F)CC4)c23)ccn1` [Example 24, N-[4-({5-[(4,4-difluoropiperidin-1-yl)methyl]-2-(pyridin-2-yl)pyrrolo[2,1-f][1,2,4]triazin-4-yl}amino)pyridin-2-yl]acetamide] the figure was 0.4 nM.

In turn, `O=C(Nc1cc(Nc2nc(-c3cccc(C(F)(F)F)n3)nn3cccc23)ccn1)C1CC1` [Example 335, N-[4-({2-[6-(trifluoromethyl)pyridin-2-yl]pyrrolo[2,1-f][1,2,4]triazin-4-yl}amino)pyridin-2-yl]cyclopropanecarboxamide] gave an IC50 of 0.37 nM.

On to `Cc1nc(-c2nc(Nc3ccncc3C(=O)NCCN3CCCCC3)c3cccn3n2)ccc1F` [Example 141, 4-{[2-(5-fluoro-6-methylpyridin-2-yl)pyrrolo[2,1-f][1,2,4]triazin-4-yl]amino}-N-[2-(piperidin-1-yl)ethyl]pyridine-3-carboxamide], for which the IC50 is 5 nM. Turning to `Nc1cccc(-c2nc(Nc3ccncc3F)c3cccn3n2)n1` [Example 53, 2-(6-aminopyridin-2-yl)-N-(3-fluoropyridin-4-yl)pyrrolo[2,1-f][1,2,4]triazin-4-amine], the IC50 was 1.6 nM. Take `COc1cccc(-c2nc(Nc3ccncc3F)c3cc(NC(=O)CN)cn3n2)n1` [Example 109, 2-amino-N-{4-[(3-fluoropyridin-4-yl)amino]-2-(6-methoxypyridin-2-yl)pyrrolo[2,1-f][1,2,4]triazin-6-yl}acetamide]: the IC50 amounted to 1600 nM. As for `CC(C)(NCc1ccn2nc(-c3ccccn3)nc(Nc3ccncc3F)c12)c1ccccn1` [Example 301, 3-fluoro-N-[2-(pyridin-2-yl)-5-({[2-(pyridin-2-yl)propan-2-yl]amino}methyl)pyrrolo[2,1-f][1,2,4]triazin-4-yl]pyridin-4-amine], the IC50 was 0.58 nM. The molecule `COc1cccc(-c2nc(Nc3ccncn3)c3cccn3n2)n1` [Example 67, N-[2-(6-methoxypyridin-2-yl)pyrrolo[2,1-f][1,2,4]triazin-4-yl]pyrimidin-4-amine] returned an IC50 of 55 nM.

Molecule `Fc1cccc(-c2nc(Nc3ccncc3Cl)c3cccn3n2)n1` [Example 70, 3-chloro-N-[2-(6-fluoropyridin-2-yl)pyrrolo[2,1-f][1,2,4]triazin-4-yl]pyridin-4-amine] displayed a half-maximal inhibitory concentration (IC50) of 0.39 nM.

As to `COc1cccc(-c2nc(Nc3ccncc3F)c3c(CCN4CCC(N)CC4)ccn3n2)n1` [Example 114, N-{5-[2-(4-aminopiperidin-1-yl)ethyl]-2-(6-methoxypyridin-2-yl)pyrrolo[2,1-f][1,2,4]triazin-4-yl}-3-fluoropyridin-4-amine], the IC50 stood at 260 nM.

As for `CC(=O)Nc1cc(Nc2nc(-c3ccc(C(F)(F)F)cn3)nn3cccc23)ccn1` [Example 332, N-[4-({2-[5-(trifluoromethyl)pyridin-2-yl]pyrrolo[2,1-f][1,2,4]triazin-4-yl}amino)pyridin-2-yl]acetamide], the IC50 stood at 47 nM. `FC(F)c1cnccc1Nc1nc(-c2cccc(C(F)(F)F)n2)nn2cccc12` [Example 2, 3-(difluoromethyl)-N-{2-[6-(trifluoromethyl)pyridin-2-yl]pyrrolo[2,1-f][1,2,4]triazin-4-yl}pyridin-4-amine]: the IC50 is 11 nM.

`CC(=O)Nc1cc(Nc2nc(-c3ccc(F)cn3)nn3cccc23)c(F)cn1` [Example 323, N-(5-fluoro-4-{[2-(5-fluoropyridin-2-yl)pyrrolo[2,1-f][1,2,4]triazin-4-yl]amino}pyridin-2-yl)acetamide] came in with an IC50 of 16 nM. As for `CS(=O)(=O)Nc1cc(Nc2nc(-c3cccc(C(F)(F)F)n3)nn3cccc23)ccn1` [Example 318, N-[4-({2-[6-(trifluoromethyl)pyridin-2-yl]pyrrolo[2,1-f][1,2,4]triazin-4-yl}amino)pyridin-2-yl]methanesulfonamide], the IC50 is 4000 nM. Molecule `FC(F)(F)c1cccc(-c2nc(Nc3ccncc3OCCCN3CCOCC3)c3cccn3n2)n1` [Example 75] came in with an IC50 of 210 nM. As to `Fc1cnccc1Nc1nc(-c2ccccn2)nn2ccc(CNCCc3ccccn3)c12` [Example 304, 3-fluoro-N-[2-(pyridin-2-yl)-5-({[2-(pyridin-2-yl)ethyl]amino}methyl)pyrrolo[2,1-f][1,2,4]triazin-4-yl]pyridin-4-amine], the half-maximal inhibitory concentration (IC50) amounted to 2.5 nM.

Molecule `O=C(NCCCN1CCOCC1)c1cnccc1Nc1nc(-c2cccc(C(F)(F)F)n2)nn2cccc12` [Example 169, N-[3-(morpholin-4-yl)propyl]-4-({2-[6-(trifluoromethyl)pyridin-2-yl]pyrrolo[2,1-f][1,2,4]triazin-4-yl}amino)pyridine-3-carboxamide] had an IC50 of 45 nM. With `O=C(N[C@@H]1CCCC[C@H]1O)c1cnccc1Nc1nc(-c2cccc(C(F)F)n2)nn2cccc12` [Example 180, 4-({2-[6-(difluoromethyl)pyridin-2-yl]pyrrolo[2,1-f][1,2,4]triazin-4-yl}amino)-N-[(1R,2R)-2-hydroxycyclohexyl]pyridine-3-carboxamide], the IC50 is 380 nM. `COc1cccc(-c2nc(Nc3ccncc3C(N)=O)c3cccn3n2)n1` [Example 98, 4-{[2-(6-methoxypyridin-2-yl)pyrrolo[2,1-f][1,2,4]triazin-4-yl]amino}pyridine-3-carboxamide]: the half-inhibitory concentration (IC50) turned out to be 9.1 nM. For the molecule `Cc1cccc(-c2nc(Nc3ccncc3C(=O)NCCCN3CCCC3)c3cccn3n2)n1` [Example 221, 4-{[2-(6-methylpyridin-2-yl)pyrrolo[2,1-f][1,2,4]triazin-4-yl]amino}-N-[3-(pyrrolidin-1-yl)propyl]pyridine-3-carboxamide], the IC50 came out at 4 nM.
